Reference: PubChem BioAssay (NCI)
Several values for one entry are separate records, joined by “and”; a condition that tells them apart may be missing. Identical values can stand only once.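 Grown in 96-well plates, cells were treated for 48 hours with each compound at five concentrations. Insufficient inhibition: endpoint recorded as highest concentration tested. GI50 marks 50% less growth. TGI: total growth inhibition.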

Columns and labels:
Assay in all cases: DTP human tumour cell line panel, 48 h
A549 NSCLC = test system: A549 NSCLC
CAKI-1 renal = test system: CAKI-1 renal
HCC-2998 colon = test system: HCC-2998 colon
NCI/ADR-RES ovarian = test system: NCI/ADR-RES ovarian
SF-268 CNS = test system: SF-268 CNS
SW-620 colon = test system: SW-620 colon
T-47D breast = test system: T-47D breast
UACC-257 melanoma = test system: UACC-257 melanoma

Row | SMILES | GI50 (A549 NSCLC) | TGI (A549 NSCLC) [µM] | GI50 (CAKI-1 renal) [µM] | TGI (CAKI-1 renal) | GI50 (HCC-2998 colon) | TGI (HCC-2998 colon) | GI50 (NCI/ADR-RES ovarian) | TGI (NCI/ADR-RES ovarian) | GI50 (SF-268 CNS) | TGI (SF-268 CNS) | GI50 (SW-620 colon) | TGI (SW-620 colon) [µM] | GI50 (T-47D breast) | TGI (T-47D breast) [µM] | GI50 (UACC-257 melanoma) | TGI (UACC-257 melanoma) [µM]
1 | Nc1ncc(-c2ccc(C(F)(F)F)cc2)c(NC2CCCCCC2)n1 | 16.5 µM | > 100 | 20.9 | > 100 µM | 48.5 µM | > 100 µM | 25.3 µM | > 100 µM | 48.4 µM | > 100 µM | 39.3 µM | > 100 | 18.3 µM | > 100 | 22.3 µM | > 100
2 | O=c1[nH]nc2c3c(cccc13)NC(CN1Cc3ccccc3C1)=N2 | 5.69 µM | > 100 | 4.92 | > 100 µM | 4.35 µM | > 100 µM | 25.7 µM | > 100 µM | 7.4 µM | > 100 µM | 7.03 µM | > 100 | 5.27 µM | > 100 | 37 µM | > 100
3 | CN(C)CC#Cc1cccc(C(=O)c2cnn(-c3ccc(F)cc3)c2N)c1 | > 25 µM | > 25 | > 25 | > 25 µM | > 25 µM | > 25 µM | > 25 µM | > 25 µM | > 25 µM | > 25 µM | > 25 µM | > 25 | 11.3 µM | > 25 | > 25 µM | > 25
4 | CCc1nc2ccc(Cc3ccc(C(=O)NO)cc3)cc2c(=O)n1CCc1ccccc1 | 1.15 µM | 2.99 | – | – | 1.44 µM | 3.1 µM | 0.37 µM | 4.59 µM | 1.31 µM | 3.91 µM | 0.412 µM | 2.23 | 0.809 µM | 5.41 | 0.64 µM | 2.47
5 | COc1cccc(/C=C/C(=O)c2cc3c(N)c(C(=O)Nc4cccc(Cl)c4C)sc3nc2C)c1 | 1.72 µM | > 50 | 0.884 | 2.53 µM | 0.971 µM | 1.83 µM | 0.883 µM | 3.08 µM | 1.57 µM | 14.4 µM | 0.472 µM | 3.85 | 1.52 µM | 7.82 | 3.48 µM | 20.9
6 | Cc1c(Cl)cccc1NC(=O)c1sc2nc3c(cc2c1N)CCCCCC3 | 0.369 µM | > 50 | – | – | 1.39 µM | > 50 µM | 0.164 µM | 15.7 µM | 0.821 µM | > 50 µM | 0.175 µM | > 50 | 0.223 µM | > 50 | – | –
7 | CC(C)(C)C(=O)C(c1ccc(-c2cscn2)cc1)c1ccc(-c2cscn2)cc1 | – | > 100 | – | > 73.2 µM | – | > 100 µM | – | – | – | 97.5 µM | – | > 100 | – | – | – | > 100
8 | O=C(c1ccc(NCN2C(=O)CCC2=O)cc1)c1ccc(NCN2C(=O)CCC2=O)cc1 | – | > 100 | – | – | – | > 100 µM | – | – | – | > 100 µM | – | > 100 | – | – | – | 84.6
9 | Cc1c(CN2CCC(Nc3ncnc4sc(CC(F)(F)F)cc34)CC2)ccc2c1cc(C#N)n2Cc1cn[nH]c1 | 8.31 µM and 10.1 µM | 23.3 | 4.43 | 22.1 µM and > 40.3 µM | 1.86 µM and 2.8 µM | 4.38 µM and 10.9 µM | 4.92 µM and 7.36 µM | 20.5 µM and > 25.8 µM | 4.48 µM and 5.71 µM | 25.5 µM and > 36.5 µM | 1.81 µM and 2.19 µM | 4.97 | 0.897 µM and 1.06 µM | 16.9 | 1.37 µM and 5.31 µM | –
10 | O=C(N/N=C/c1cc(Br)cc(Br)c1[O-])c1ccccc1O.O=C(N/N=C/c1cc(Br)cc(Br)c1[O-])c1ccccc1O.[Mn+2] | – | 25.5 | – | 11.9 µM | – | 25.9 µM | – | – | – | 10.6 µM | – | 24.1 | – | – | – | 21
11 | Clc1cc(Cl)cc(N2N=C(c3cccc(Nc4ccncc4)c3)CC2c2ccc(Br)cc2)c1 (centres undefined) | – | – | 1.54 | 2.91 µM | 1.77 µM | 3.2 µM | 1.91 µM | 3.86 µM | 1.76 µM | 3.58 µM | 1.61 µM | 3.04 | – | – | 1.92 µM | 3.85
12 | CCOC(=O)[C@@H](C)C[C@H](Cc1ccccc1)NC(=O)c1csc([C@@H](C[C@H](C(C)C)N(C)C(=O)[C@H](CCC(C)C)NC(=O)[C@H]2CCCCN2C)OC(C)=O)n1 | 0.0145 µM | > 33.3 | – | – | < 0.00333 µM | 4.28 µM | 0.143 µM | 24 µM | 0.0205 µM | 5.87 µM | < 0.00333 µM | 7.14 | – | – | 4.24 µM | 10.3
13 | CC(=S)NNC(=O)c1ccncc1 | – | > 100 | – | > 100 µM | – | > 100 µM | – | – | – | > 100 µM | – | > 100 | – | – | – | > 100
14 | N#CC(C#N)=CN1CCN(C(=O)c2ccccc2)C1=S | 37.1 µM | > 100 | 28.7 | 89.4 µM | – | – | > 100 µM | > 100 µM | 21.3 µM | 49 µM | 33.7 µM | > 100 | 89.2 µM | > 100 | 25.3 µM | 81.9
15 | Cl.Fc1c[c-]c(-c2ccccn2)c(F)c1.[Pt].c1ccc([PH+](CC[PH+](c2ccccc2)c2ccccc2)c2ccccc2)cc1 | – | – | 0.246 | 0.948 µM | – | – | 1.01 µM | 4.18 µM | – | – | – | – | 0.0912 µM | 1.39 | 0.165 µM | 0.975
16 | COc1ccc(C(=O)/C=C/c2cc(C(=O)c3cc(OC)c(OC)c(OC)c3)ccc2OC)cc1 | > 100 µM | > 100 | – | – | – | – | 2.93 µM | > 100 µM | 3.51 µM | > 100 µM | 3.07 µM | > 100 | – | – | – | –
17 | Cc1nc(Nc2ccc(F)c(Cl)c2)sc1C(=O)O | 1.68 µM | 3.81 | 1.9 | 7.34 µM | – | – | 1.78 µM | 4.7 µM | 1.76 µM | 4.36 µM | 2.32 µM | 6.31 | – | – | 1.78 µM | 3.36
18 | c1ccc2[nH]c(-c3ccc(OCCCCCOc4ccc(-c5nc6ccccc6[nH]5)cc4)cc3)nc2c1 | 2.53 µM | > 47.4 | 1.97 | 6.8 µM | 2.31 µM | 7.59 µM | 2.28 µM | 7.2 µM | – | – | 1.02 µM | 3.69 | 0.822 µM | 2.13 | 1.65 µM | 3.83
19 | N#CC1(c2nc3ccccc3o2)C(=O)C(=O)N(c2ccc(Cl)c(Cl)c2)C(=O)C1=O | – | > 100 | – | > 100 µM | – | > 100 µM | – | – | – | > 100 µM | – | > 100 | – | – | – | > 100
